From patent publication US8389555B2, “Medicaments” (Motac Neuroscience Limited, priority 2007, dated 2013) come the findings set out here.

Molecules are shown by their SMILES.

The target in experiment [1] is T1, recombinant human D2(short) dopamine receptor (Homo sapiens, UniProt P14416).
T1 construct: expressed in transfected cells; host or cells: CHO-D2S cells (per Hayes et al. 1992)
In words: Dopamine D2S receptor binding assay ([3H]spiperone, CHO cell membranes). Conditions: human D2S receptors in CHO cells, 0.2 nM [3H]spiperone, mean ± SEM; read-out: Affinity Ki (D2). On the procedure:
(§1) Compounds synthesized in Examples A, B, C and D were assayed to test their affinity for dopamine D3 and D2 receptors.
(§2) METHODS: Dopamine D2S and D3 Receptor Binding Assays
CHO-D2S cells, expressing the recombinant human D2(short) dopamine receptor gene, (Hayes, G. et al., J. Mol. Endocrinol. 1992, 6, 920-926) were grown in Dulbecco's modified Eagle's medium/nutrient mixture F12 1:1 mixture supplemented with 2 mM glutamine, 10% fetal bovine serum, and 10 μl·ml^−1 penicillin/streptomycin in an atmosphere of 5% CO2 at 37° C. (Gibco™, Karlsruhe, Germany).
(§3) Human D2S- and D3 receptors expressing cell lines were grown to confluence. The medium was removed, and the cells were washed with 10 ml PBS buffer (140 mM NaCl, 3 mM KCl, 1.5 mM KH2PO4, 8 mM Na2HPO4, pH 7.4) at 4° C. After removing the wash buffer, the cells were scraped from the flasks into 15 ml of ice-cold media, and centrifuged at 3,000 rpm for 10 minutes at 4° C. After centrifugation the medium was removed and the […] resuspended in ice-cold Tris-HCl buffer containing 5 mM MgCl2, pH 7.4 and disrupted with a Polytron and centrifuged at 20,000 rpm, for 30 minutes at 4° C. The pellet was resuspended by sonication in ice-cold Tris-HCl buffer (containing 5 mM MgCl2, pH 7.4), membrane aliquots were stored at −70° C. Determination of membrane protein was carried out by the method of Bradford (Bradford, M. M. Anal Biochem 1976, 72, 248-54).
(§4) Cell membranes containing human D2S and D3 receptors from CHO cells were thawed, rehomogenized with sonication at 4° C. in Tris-HCl, pH 7.4 containing 120 mM NaCl, 5 mM KCl, 2 mM CaCl2 and 1 mM MgCl2 (incubation buffer), and incubated with 0.2 nM [^3H]spiperone (106 Ci·mmol^−1, Amersham Biosciences, Freiburg, Germany), and drug diluted in incubation buffer. Non-specific binding was determined in the presence of 10 μM BP 897 ((Wermuth, C. G. et al. in Chem. Abstr. (Eur. Pat. 0779284, 1997)). Incubations were run at 25° C. for 120 min, and terminated by rapid filtration through PerkinElmer GF/B glass fibre filters (PerkinElmer Life Sciences, Rodgau, Germany) coated in 0.3% polyethylenimine (Sigma-Aldrich, Taufkirchen, Germany) using an Inotech cell harvester (Inotech AG, Dottikon, Switzerland). Unbound radioligand was removed with four washes of 1 ml of ice-cold 50 mM Tris-HCl buffer, pH 7.4, containing 120 mM NaCl. The filters were soaked in 9 ml Beta plate scint scintillator and counted using a PerkinElmer MicroBeta®Trilux scintillation counter (PerkinElmer Life Sciences). Competition binding data were analyzed by the software GraphPad Prism™ (2000, version 3.02, San Diego, Calif., USA), using non-linear least squares fit. For detailed screening the compounds have been tested at seven concentrations in triplicate carrying out three to five separate binding experiments for human dopamine D2S and for human dopamine D3 receptors and expressed as mean±standard error of the mean (SEM). Ki values were calculated from the IC50 values according to Cheng-Prusoff equation (Cheng, Y. C., Prusoff, W. H. Biochem. Pharmacol. 1973, 22, 3099-3108.).

In experiment [2] the target is T2, human dopamine D3 receptors (Homo sapiens, UniProt P35462).
T2 construct: expressed in transfected cells
Kind of experiment: Dopamine D3 receptor binding assay ([3H]spiperone, CHO cell membranes). Particulars: for Ki: human D3 receptors in CHO cells, 0.2 nM [3H]spiperone, mean ± SEM, read-out: Affinity Ki (D3); for Selectivity Ki(D2)/Ki(D3): ratio of Ki(D2) to Ki(D3). As for the experimental part:
as §1, §2
Human D3 receptors stably expressed in CHO cells were used as described by Sokoloff et al. (Sokoloff, P. et al., Eur. J. Pharmacol. 1992, 225, 331-337). The cell line was cultured in Dulbecco's modified Eagle's medium supplemented with 2 mM glutamine, and 10% dialyzed fetal bovine serum, and were grown in an atmosphere of 5% CO2 at 37° C. (Gibco™).
as §3, §4

T2 sequence (P35462 whole entry): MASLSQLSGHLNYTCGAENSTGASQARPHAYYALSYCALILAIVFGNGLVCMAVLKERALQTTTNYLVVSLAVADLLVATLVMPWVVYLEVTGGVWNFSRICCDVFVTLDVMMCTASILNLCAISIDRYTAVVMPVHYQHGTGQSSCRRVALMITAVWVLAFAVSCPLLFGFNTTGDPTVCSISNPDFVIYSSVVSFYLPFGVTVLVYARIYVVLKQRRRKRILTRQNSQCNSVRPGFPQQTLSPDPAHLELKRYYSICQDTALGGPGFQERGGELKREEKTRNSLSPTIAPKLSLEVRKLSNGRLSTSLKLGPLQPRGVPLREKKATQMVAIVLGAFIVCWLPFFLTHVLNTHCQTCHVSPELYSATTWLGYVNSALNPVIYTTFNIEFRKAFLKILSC
T1 sequence (P14416 1-414 isoform P14416-2): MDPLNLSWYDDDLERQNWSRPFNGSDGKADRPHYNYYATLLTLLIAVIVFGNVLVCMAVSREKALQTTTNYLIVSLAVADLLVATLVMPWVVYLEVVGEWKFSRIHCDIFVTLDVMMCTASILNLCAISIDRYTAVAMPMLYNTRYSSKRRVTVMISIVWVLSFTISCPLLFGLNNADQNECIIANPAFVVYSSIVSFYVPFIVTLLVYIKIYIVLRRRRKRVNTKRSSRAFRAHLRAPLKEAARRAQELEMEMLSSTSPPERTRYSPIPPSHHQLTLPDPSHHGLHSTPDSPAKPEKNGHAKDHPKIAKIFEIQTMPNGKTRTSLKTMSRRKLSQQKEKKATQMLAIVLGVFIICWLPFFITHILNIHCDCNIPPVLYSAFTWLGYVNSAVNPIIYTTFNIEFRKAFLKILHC

As to `CCCN(CCCCNC(=O)N1Cc2ccccc2C1)C1CCc2ncsc2C1` (stereo not drawn) [Compound 27, 1,3-Dihydro-isoindole-2-carboxylic acid {4-[propyl-(4,5,6,7-tetrahydro-benzothiazol-6-yl)-amino]-butyl}-amide], the Ki – broadly, a measure of affinity in units of concentration, obtained from inhibition or displacement – in experiment [1] turned out to be 3.19 ± 1.47 µM. Further, in experiment [2], the Ki amounted to 0.00225 ± 0.00124 µM and the “Selectivity Ki(D2)/Ki(D3)” value was found to be 1422.

`CCCN(CCCCNC(=O)C=Cc1ccc(F)cc1)C1CCc2ncsc2C1` (stereo not drawn) [Compound 18, 4-Fluoro-N-{4-[propyl-(4,5,6,7-tetrahydro-benzothiazol-6-yl)-amino]-butyl}-cinnamoylamide]: the Ki in experiment [1] was 0.842 ± 0.035 µM; in experiment [2], 0.00057 ± 4e-05 µM. In addition, the “Selectivity Ki(D2)/Ki(D3)” value in experiment [2] stood at 1479.

As to `CCCN(CCCCNC(=O)c1ccccc1)C1CCc2ncsc2C1` (stereo not drawn) [Compound 1, N-{4-[Propyl-(4,5,6,7-tetrahydro-benzothiazol-6-yl)-amino]-butyl}-benzamide], the values for the Ki in experiment [1] and in experiment [2] were 1.68 ± 0.382 µM and 0.00226 ± 0.00079 µM, respectively. Moreover, the “Selectivity Ki(D2)/Ki(D3)” value in experiment [2] is 746.

`CCN(CCNC(=O)c1ccc2ccccc2c1)C1CCc2ncsc2C1` (stereo not drawn) [Compound 32, Naphthalene-2-carboxylic acid {2-[ethyl-(4,5,6,7-tetrahydro-benzothiazol-6-yl)-amino]-ethyl}-amide]: the Ki in experiment [1] worked out at 2.55 ± 0.302 µM. For the same molecule, in experiment [2], the Ki came to 0.0678 ± 0.0214 µM and the “Selectivity Ki(D2)/Ki(D3)” value is given as 38.

On to `CCN(CCN1CCN(c2ccccc2OC)CC1)C1CCc2ncsc2C1` (stereo not drawn) [Compound 28], for which the Ki in experiment [1] came to 0.148 ± 0.023 µM; in experiment [2] it was 0.0135 ± 0.0011 µM. Moreover, the “Selectivity Ki(D2)/Ki(D3)” value in experiment [2] is 11.

As to `CCCN(CCCCNC(=O)c1ccc2ccccc2c1)C1CCc2ncsc2C1` (stereo not drawn) [Compound 5, Naphthalene-2-carboxylic acid {4-[propyl-(4,5,6,7-tetrahydro-benzothiazol-6-yl)-amino]-butyl}-amide], the Ki in experiment [1] was found to be 0.873 ± 0.388 µM. Further, in experiment [2], the Ki is 0.00116 ± 0.00017 µM and the “Selectivity Ki(D2)/Ki(D3)” value was 751.

`CCCN(CCCCNC(=O)c1cnc(-c2ccc(Cl)cc2)s1)C1CCc2ncsc2C1` (stereo not drawn) [Compound 19, 2-(4-Chloro-phenyl)-thiazole-5-carboxylic acid {4-[propyl-(4,5,6,7-tetrahydro-benzothiazol-6-yl)-amino]-butyl}-amide]: the Ki in experiment [1] worked out at 2.52 ± 0.144 µM. Moreover, in experiment [2], the Ki was determined as 0.083 ± 0.002 µM and the “Selectivity Ki(D2)/Ki(D3)” value stood at 30.

With `CCCN(CCOc1ccccc1)C1CCc2ncsc2C1` (stereo not drawn) [Compound 69, N-(2-Phenoxyethyl)-N-propyl-4,5,6,7-tetrahydrobenzothiazol-6-amine], the Ki in experiment [1] was 4.67 ± 1.32 µM; in experiment [2] it was 0.051 ± 0.01 µM. Moreover, the “Selectivity Ki(D2)/Ki(D3)” value in experiment [2] is 91.

For `CCCN(CCCCNC(=O)N1CCCCC1)C1CCc2ncsc2C1` (stereo not drawn) [Compound 21, Piperidine-1-carboxylic acid {4-[propyl-(4,5,6,7-tetrahydro-benzothiazol-6-yl)-amino]-butyl}-amide], the Ki in experiment [1] came to 7.44 ± 2.29 µM. Also, in experiment [2], the Ki came to 0.00646 ± 0.00325 µM and the “Selectivity Ki(D2)/Ki(D3)” value amounted to 1152.

As for `CCCN(CCCCC(=O)N1CCN(c2ccccc2)CC1)C1CCc2ncsc2C1` (stereo not drawn) [Compound 66, 1-(4-Phenylpiperazin-1-yl)-5-(propyl-(4,5,6,7-tetrahydrobenzothiazol-6-yl)amino)pentan-1-one], in experiment [1], the Ki was 4.13 ± 1.56 µM. For the same molecule, in experiment [2], the Ki was 0.00723 ± 0.001 µM and the “Selectivity Ki(D2)/Ki(D3)” value was 572.

As for `CCCN(CCCCNC(=O)NC1Cc2ccccc2C1)C1CCc2ncsc2C1` (stereo not drawn) [Compound 60, 1-Indan-2-yl-3-{4-[propyl-(4,5,6,7-tetrahydrobenzothiazol-6-yl)amino]butyl}urea], the values for the Ki in experiment [1] and in experiment [2] were 2.18 ± 1.64 µM and 0.00336 ± 0.00121 µM, respectively. Further, the “Selectivity Ki(D2)/Ki(D3)” value in experiment [2] is 649.

Consider `CCN(CCCCN1CCN(c2ccccc2OC)CC1)C1CCc2ncsc2C1` (stereo not drawn) [Compound 30, Ethyl-{4-[4-(2-methoxy-phenyl)-piperazin-1-yl]-butyl}-(4,5,6,7-tetrahydro-benzothiazol-6-yl)-amine], for which the results for the inhibition constant (Ki) in experiment [1] and in experiment [2] were 0.48 ± 0.051 µM and 0.0553 ± 0.0161 µM, respectively. The “Selectivity Ki(D2)/Ki(D3)” value in experiment [2] is reported as 8.7.

Turning to `CCCN(CCCCNC(=O)c1cc2ccccc2s1)C1CCc2ncsc2C1` (stereo not drawn) [Compound 13, Benzo[b]thiophene-2-carboxylic acid {4-[propyl-(4,5,6,7-tetrahydro-benzothiazol-6-yl)-amino]-butyl}-amide], in experiment [1], the Ki was 2.28 ± 0.105 µM. For the same molecule, in experiment [2], the Ki amounted to 0.016 ± 0.006 µM and the “Selectivity Ki(D2)/Ki(D3)” value was determined as 141.

For the molecule `O=C(NCCCCNC1CCc2ncsc2C1)c1cc2ccccc2s1` (stereo not drawn) [Compound 10, Benzo[b]thiophene-2-carboxylic acid [4-(4,5,6,7-tetrahydro-benzothiazol-6-ylamino)-butyl]-amide], the inhibition constant (Ki) in experiment [1] came out at 23.4 ± 1.22 µM. Also, in experiment [2], the Ki worked out at 0.292 ± 0.041 µM and the “Selectivity Ki(D2)/Ki(D3)” value was 80.

`CCCN(CCCCNC(=O)C=Cc1ccccc1)C1CCc2ncsc2C1` (stereo not drawn) [Compound 16, N-{4-[Propyl-(4,5,6,7-tetrahydro-benzothiazol-6-yl)-amino]-butyl}-cinnamoylamide]: the Ki in experiment [1] is 4.01 ± 0.383 µM. Also, in experiment [2], the Ki is 0.00811 ± 0.00123 µM and the “Selectivity Ki(D2)/Ki(D3)” value was 495.

On to `CCCN(CCCCNC(=O)C1CCCCC1)C1CCc2ncsc2C1` (stereo not drawn) [Compound 20, Cyclohexanecarboxylic acid {4-[propyl-(4,5,6,7-tetrahydro-benzothiazol-6-yl)-amino]-butyl}-amide], for which the Ki in experiment [1] was 1.53 ± 0.297 µM. Besides, in experiment [2], the Ki was 0.00262 ± 0.00016 µM and the “Selectivity Ki(D2)/Ki(D3)” value was found to be 582.

Turning to `CCN(CCCN1CCN(c2ccccc2OC)CC1)C1CCc2ncsc2C1` (stereo not drawn) [Compound 29, Ethyl-{3-[4-(2-methoxy-phenyl)-piperazin-1-yl]-propyl}-(4,5,6,7-tetrahydro-benzothiazol-6-yl)-amine], the Ki in experiment [1] turned out to be 0.14 ± 0.122 µM. In addition, in experiment [2], the Ki turned out to be 0.089 ± 0.0017 µM and the “Selectivity Ki(D2)/Ki(D3)” value was 2.

In the case of `CCCN(CCCCNC(=O)C1Cc2ccccc2C1)C1CCc2ncsc2C1` (stereo not drawn) [Compound 26, Indane-2-carboxylic acid-{4-[propyl-(4,5,6,7-tetrahydrobenzothiazol-6-yl)amino]butyl}amide], the Ki in experiment [1] is 1.81 ± 0.376 µM. In addition, in experiment [2], the Ki came out at 0.00152 ± 0.00055 µM and the “Selectivity Ki(D2)/Ki(D3)” value amounted to 1189.

Consider `CCCN(CCCCNC(=O)N1CCN(c2ccccc2)CC1)C1CCc2ncsc2C1` (stereo not drawn) [Compound 61, 4-Phenylpiperazine-1-carboxylic acid {4-[propyl-(4,5,6,7-tetrahydrobenzothiazol-6-yl)amino]butyl}amide], for which the Ki in experiment [1] is 3.43 ± 1.29 µM. Moreover, in experiment [2], the inhibition constant Ki is 0.00209 ± 0.00057 µM and the “Selectivity Ki(D2)/Ki(D3)” value is 1640.

For the molecule `CCCN(CCCCNC(=O)C=Cc1ccc(Cl)cc1Cl)C1CCc2ncsc2C1` (stereo not drawn) [Compound 17, 2,4-Dichloro-N-{4-[propyl-(4,5,6,7-tetrahydro-benzothiazol-6-yl)-amino]-butyl}-cinnamoylamide], in experiment [1], the Ki worked out at 0.445 ± 0.055 µM. In experiment [2], the Ki worked out at 0.00241 ± 0.001 µM and the “Selectivity Ki(D2)/Ki(D3)” value came out at 184.

With `C#CCN(CCCCNC(=O)c1ccc2ccccc2c1)C1CCc2ncsc2C1` (stereo not drawn) [Compound 7, Naphthalene-2-carboxylic acid {4-[prop-2-ynyl-(4,5,6,7-tetrahydro-benzothiazol-6-yl)-amino]-butyl}-amide], the Ki in experiment [1] was determined as 9.08 ± 0.684 µM. Moreover, in experiment [2], the Ki turned out to be 0.00776 ± 0.00137 µM and the “Selectivity Ki(D2)/Ki(D3)” value is reported as 1170.
